Laboratory results reported in the supplement of paper PMC10883282.
± gives the standard deviation of the averaged measurements.

Tested on: SYO-1
Experiment: relative viability vs DMSO control (72 h) (fraction); higher = more viable cells
In short: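 Sarcoma cell lines were seeded in 384-well plates at densities set to reach 80–90% confluence. After 24 h, 2.5 µl of serially diluted compound was added (source plates 10 mM to 0.0002 mM), and plates were held 72 h at 37 °C, 5% CO2, with 0.1% DMSO vehicle and a 5 µM positive control. Relative viability came from ATPLite readings as percent growth, averaged over up to triplicate wells. Data were rescaled so full viability equals 1 and none equals 0.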

Compound	relative viability (0.00017 µM)	relative viability (0.00051 µM)	relative viability (0.00152 µM)	relative viability (0.00457 µM)	relative viability (0.01372 µM)	relative viability (0.04115 µM)	relative viability (0.1235 µM)	relative viability (0.3704 µM)	relative viability (1.111 µM)	relative viability (3.333 µM)	relative viability (10 µM)	relative viability (2 pM)	relative viability (5 pM)	relative viability (15 pM)	relative viability (50 pM)	relative viability (0.00014 µM)	relative viability (0.00041 µM)	relative viability (0.0012 µM)	relative viability (0.0037 µM)	relative viability (0.011 µM)	relative viability (200 fM)	relative viability (600 fM)
CC(C)NC(=O)C1CCC(n2c(NC(=O)c3ccc(F)cc3)nc3ccc(CN4CCC(C(C)(C)O)CC4)cc32)CC1 (stereo not drawn) [Belizatinib]	0.993 ± 0.062	0.983 ± 0.019	0.983 ± 0.055	1 ± 0.069	0.96 ± 0.03	0.967 ± 0.044	0.902 ± 0.052	0.798 ± 0.046	0.639 ± 0.046	0.336 ± 0.018	0.155 ± 0.03											
C=CC(=O)N1CCC[C@@H](n2nc(-c3ccc(Oc4ccccc4)cc3)c3c(N)ncnc32)C1 [Ibrutinib]	0.992 ± 0.034	0.959 ± 0.047	0.923 ± 0.036	0.933 ± 0.042	0.923 ± 0.046	0.892 ± 0.045	0.868 ± 0.041	0.861 ± 0.026	0.759 ± 0.055	0.557 ± 0.027	0.39 ± 0.02											
O=C(Cc1ccc(-c2ccc(OCCN3CCOCC3)cc2)cn1)NCc1ccccc1 [KX2-391]	1 ± 0.039	0.973 ± 0.038	0.958 ± 0.017	0.952 ± 0.042	0.917 ± 0.034	0.673 ± 0.027	0.295 ± 0.013	0.309 ± 0.011	0.324 ± 0.015	0.324 ± 0.011	0.357 ± 0.011											
CC(=O)Nc1cccc(-n2c(=O)n(C3CC3)c(=O)c3c(Nc4ccc(I)cc4F)n(C)c(=O)c(C)c32)c1 [Trametinib]	0.997 ± 0.025	0.983 ± 0.057	0.925 ± 0.031	0.889 ± 0.034	0.865 ± 0.027	0.832 ± 0.056	0.765 ± 0.05	0.735 ± 0.038	0.687 ± 0.061	0.687 ± 0.037	0.671 ± 0.048											
COc1cc2nccc(Oc3ccc(NC(=O)Nc4cc(C)on4)c(Cl)c3)c2cc1OC [Tivozanib]	0.97 ± 0.049	0.952 ± 0.04	0.935 ± 0.051	0.941 ± 0.023	0.887 ± 0.051	0.796 ± 0.053	0.765 ± 0.02	0.706 ± 0.03	0.618 ± 0.065	0.523 ± 0.025	0.393 ± 0.027											
COc1cc2c(cc1O)CCN[C@]21CS[C@@H]2c3c(OC(C)=O)c(C)c4c(c3[C@H](COC1=O)N1[C@@H]2[C@H]2c3c(cc(C)c(OC)c3O)C[C@@H]([C@@H]1O)N2C)OCO4 [Trabectedin]												0.489 ± 0.027	0.422 ± 0.039	0.299 ± 0.027	0.194 ± 0.13	0.0855 ± 0.18	0.0855 ± 0.18	0.26 ± 0.031	0.315 ± 0.0091	0.312 ± 0.02	0.4804 ± 0.002	0.512 ± 0.024
CNC(=O)c1cc(Oc2ccc(NC(=O)Nc3ccc(Cl)c(C(F)(F)F)c3)c(F)c2)ccn1 [Regorafenib]	1.02 ± 0.039	1.022 ± 0.0037	1.04 ± 0.05	1.01 ± 0.035	1.03 ± 0.02	0.999 ± 0.05	0.954 ± 0.065	0.755 ± 0.038	0.572 ± 0.022	0.476 ± 0.016	0.217 ± 0.016											
C[C@@H]1CCN(C(=O)CC#N)C[C@@H]1N(C)c1ncnc2[nH]ccc12 [Tofacitinib]	1.01 ± 0.051	0.969 ± 0.061	0.966 ± 0.072	0.923 ± 0.024	0.887 ± 0.039	0.902 ± 0.062	0.916 ± 0.043	0.888 ± 0.02	0.891 ± 0.053	0.868 ± 0.032	0.766 ± 0.044											
COc1cc2c(Oc3ccc4[nH]c(C)cc4c3F)ncnc2cc1OCCCN1CCCC1 [Cediranib]	0.965 ± 0.02	0.962 ± 0.039	0.967 ± 0.04	0.946 ± 0.043	0.91 ± 0.074	0.723 ± 0.036	0.5301 ± 0.0011	0.471 ± 0.019	0.453 ± 0.019	0.483 ± 0.012	0.482 ± 0.027											
CC[C@H](Nc1ncnc2[nH]cnc12)c1nc2cccc(F)c2c(=O)n1-c1ccccc1 [Idelalisib]	1.01 ± 0.062	0.979 ± 0.029	1 ± 0.054	0.968 ± 0.068	0.972 ± 0.069	0.942 ± 0.028	0.941 ± 0.032	0.931 ± 0.068	0.911 ± 0.045	0.866 ± 0.067	0.799 ± 0.079											
Cc1cc(Nc2ncnc3ccc(NC4=NC(C)(C)CO4)cc23)ccc1Oc1ccn2ncnc2c1 [Tucatinib]	1.03 ± 0.024	1.04 ± 0.026	1.02 ± 0.015	1.01 ± 0.021	0.99 ± 0.027	0.981 ± 0.038	1.01 ± 0.022	0.97 ± 0.064	0.969 ± 0.019	0.959 ± 0.027	0.841 ± 0.041											
Cn1cc(-c2cc3c(N4CCN(c5ncc([C@@](C)(N)c6ccc(F)cc6)cn5)CC4)ncnn3c2)cn1 [Avapritinib]	0.92 ± 0.012	0.898 ± 0.031	0.882 ± 0.057	0.844 ± 0.087	0.807 ± 0.1	0.718 ± 0.054	0.629 ± 0.053	0.568 ± 0.03	0.534 ± 0.059	0.439 ± 0.039	0.319 ± 0.023											
CC(C)(C)c1cc(NC(=O)Nc2ccc(-c3cn4c(n3)sc3cc(OCCN5CCOCC5)ccc34)cc2)no1 [Quizartinib]	0.978 ± 0.017	0.963 ± 0.02	0.973 ± 0.044	0.943 ± 0.035	0.935 ± 0.034	0.9229 ± 0.0014	0.873 ± 0.015	0.715 ± 0.043	0.67 ± 0.046	0.646 ± 0.034	0.627 ± 0.044											
O=C(Nc1cnn2ccc(N3CCC[C@@H]3c3cc(F)ccc3F)nc12)N1CC[C@H](O)C1 [Larotrectinib]	1.034 ± 0.0067	1.02 ± 0.021	0.979 ± 0.016	0.973 ± 0.047	0.946 ± 0.06	0.948 ± 0.063	0.926 ± 0.075	0.937 ± 0.043	0.885 ± 0.058	0.903 ± 0.062	0.875 ± 0.055											
Cc1nc(-c2cn3c(n2)-c2ccc(-c4cnn(C(C)(C)C(N)=O)c4)cc2OCC3)n(C(C)C)n1 [Taselisib]	0.9262 ± 0.0077	0.924 ± 0.029	0.924 ± 0.035	0.895 ± 0.051	0.864 ± 0.042	0.794 ± 0.053	0.759 ± 0.041	0.721 ± 0.046	0.684 ± 0.046	0.61 ± 0.034	0.476 ± 0.033											
Cc1nc(NC(=O)N2CCC[C@H]2C(N)=O)sc1-c1ccnc(C(C)(C)C(F)(F)F)c1 [Alpelisib]	0.975 ± 0.071	0.944 ± 0.068	0.93 ± 0.049	0.919 ± 0.031	0.85 ± 0.099	0.805 ± 0.095	0.735 ± 0.1	0.68 ± 0.11	0.633 ± 0.063	0.6 ± 0.019	0.5521 ± 0.0025											
Cn1cnc2c(F)c(Nc3ccc(Br)cc3F)c(C(=O)NOCCO)cc21 [Binimetinib]	1.04 ± 0.027	1.05 ± 0.02	1.01 ± 0.064	1.01 ± 0.038	0.983 ± 0.024	0.96 ± 0.042	0.936 ± 0.038	0.933 ± 0.019	0.93 ± 0.069	0.889 ± 0.042	0.86 ± 0.059											
CCc1cc2c(cc1N1CCC(N3CCOCC3)CC1)C(C)(C)c1[nH]c3cc(C#N)ccc3c1C2=O [Alectinib]	0.979 ± 0.024	0.983 ± 0.032	0.982 ± 0.058	0.975 ± 0.059	0.99 ± 0.072	0.98 ± 0.031	0.972 ± 0.081	0.986 ± 0.051	1 ± 0.05	0.984 ± 0.045	1.03 ± 0.034											
Cc1cc(C)c(/C=C2\C(=O)Nc3ccccc32)[nH]1 [Semaxanib]	0.922 ± 0.014	0.915 ± 0.01	0.917 ± 0.014	0.908 ± 0.025	0.87 ± 0.035	0.824 ± 0.056	0.774 ± 0.047	0.721 ± 0.03	0.649 ± 0.046	0.632 ± 0.041	0.579 ± 0.0071											
CC1(C)CNc2cc(NC(=O)c3cccnc3NCc3ccncc3)ccc21 [Motesanib]	0.962 ± 0.012	0.979 ± 0.043	0.996 ± 0.05	0.974 ± 0.043	0.973 ± 0.025	0.914 ± 0.036	0.866 ± 0.029	0.777 ± 0.054	0.724 ± 0.021	0.648 ± 0.016	0.494 ± 0.019											
CNC(=O)c1ccc(-c2cnc3ncc(Cc4ccc5ncccc5c4)n3n2)cc1F [Capmatinib]	0.956 ± 0.039	0.962 ± 0.044	0.966 ± 0.028	0.968 ± 0.015	0.97 ± 0.03	0.961 ± 0.042	0.97 ± 0.033	0.967 ± 0.026	0.994 ± 0.023	1.03 ± 0.03	1.01 ± 0.067											
CC(C)N1CCN(Cc2cnc(-c3cc(-c4cccc5[nH]ccc45)cc4[nH]ncc34)o2)CC1 [Nemiralisib]	1.02 ± 0.013	0.981 ± 0.046	0.981 ± 0.036	0.974 ± 0.049	0.981 ± 0.025	0.991 ± 0.02	0.9659 ± 0.0068	0.968 ± 0.017	0.882 ± 0.025	0.697 ± 0.028	-0.0515 ± 0.012											
CO[C@H]1C[C@@H]2CC[C@@H](C)[C@@](O)(O2)C(=O)C(=O)N2CCCC[C@H]2C(=O)O[C@H]([C@H](C)C[C@@H]2CC[C@@H](OP(C)(C)=O)[C@H](OC)C2)CC(=O)[C@H](C)/C=C(\C)[C@@H](O)[C@@H](OC)C(=O)[C@H](C)C[C@H](C)/C=C/C=C/C=C/1C [Ridaforolimus]	0.941 ± 0.022	0.924 ± 0.024	0.915 ± 0.026	0.89 ± 0.037	0.868 ± 0.035	0.832 ± 0.041	0.79 ± 0.042	0.775 ± 0.038	0.748 ± 0.056	0.707 ± 0.058	0.672 ± 0.062											
Nc1cc(C(F)(F)F)c(-c2cc(N3CCOCC3)nc(N3CCOCC3)n2)cn1 [Buparlisib]	0.933 ± 0.025	0.939 ± 0.011	0.935 ± 0.028	0.931 ± 0.022	0.894 ± 0.043	0.878 ± 0.066	0.81 ± 0.075	0.739 ± 0.052	0.456 ± 0.0064	0.159 ± 0.0096	0.136 ± 0.005											
Cc1ccc(F)c(NC(=O)Nc2ccc(-c3cccc4[nH]nc(N)c34)cc2)c1 [Linifanib]	0.98 ± 0.036	0.968 ± 0.087	0.957 ± 0.066	0.941 ± 0.035	0.906 ± 0.049	0.845 ± 0.085	0.76 ± 0.13	0.751 ± 0.093	0.769 ± 0.016	0.753 ± 0.055	0.711 ± 0.031											
N#CC[C@H](C1CCCC1)n1cc(-c2ncnc3[nH]ccc23)cn1 [Ruxolitinib]	0.969 ± 0.039	0.975 ± 0.034	0.958 ± 0.035	0.945 ± 0.029	0.964 ± 0.026	0.969 ± 0.059	0.931 ± 0.043	0.941 ± 0.095	0.945 ± 0.048	0.892 ± 0.037	0.641 ± 0.014											
C=CC(=O)Nc1cccc(Oc2nc(Nc3ccc(N4CCN(C)CC4)cc3)nc3ccsc23)c1 [Olmutinib]	0.957 ± 0.02	0.985 ± 0.043	0.955 ± 0.018	0.952 ± 0.01	0.953 ± 0.021	0.9712 ± 0.0081	0.972 ± 0.037	0.933 ± 0.017	0.908 ± 0.045	0.698 ± 0.044	-0.00933 ± 0.0049											
CCCS(=O)(=O)Nc1ccc(F)c(C(=O)c2c[nH]c3ncc(-c4ccc(Cl)cc4)cc23)c1F [Vemurafenib]	0.954 ± 0.056	0.955 ± 0.048	0.963 ± 0.04	0.966 ± 0.061	0.975 ± 0.051	0.967 ± 0.043	0.974 ± 0.024	1 ± 0.027	0.986 ± 0.042	0.95 ± 0.076	0.608 ± 0.072											
